Results reported in patent US20040191287A1, “Fumigation process for stored food grains” (priority 2003, published 2004).

Tests used:
Tribolium castaneum = assay: whole plant or invertebrate; conditions: Tribolium castaneum, read-out: Mortality (%) (Mean ± SD)
Method: (§1) Cryptolestes sp. was reared on wheat feed. S. oryzae, Cryptolestes sp. and T. castaneum cultures were maintained at 25±1° C. and 70% RH whereas R. dominica cultures were maintained at 30±1° C. and 70% RH. From the established cultures, 2-week-old adults were taken and counted into 10 cm×2.3 cm size test tubes at 50 per replicate. The mouth of the tube was closed with a cloth piece held by small rubber ring. The insects were exposed to a range of doses (10 to 100 mg/litre) of esters for 24 hours in 0.85-liter desicators at the laboratory temperature of 26±2° C. Pure grade esters including allyl acetate, butyl acetate, ethyl acetoacetate, isopropyl acetate and propyl acetate were procured from Merck India Ltd. In each desiccator a 9 cm diameter Whatman No. 1 filter circle was placed; the filter circle acted as evaporating surface for the injected liquids (esters). Required quantity of the ester was drawn from the bottles using 10, 25 or 50 micro litre liquid syringe. There were 6 replicates for each dose with equal number of replicates for untreated control. The exposure period in all cases was 24 hours. […] Insect mortality was assessed after 14 days. Corrected mortality was arrived at based on Abbott's formula (1925).

Rhyzopertha dominica = assay: whole plant or invertebrate; conditions: Rhyzopertha dominica, read-out: Mortality (%) (Mean ± SD)
Method: as §1

Sitophilus oryzae = assay: whole plant or invertebrate; conditions: Sitophilus oryzae, read-out: Mortality (%) (Mean ± SD)
Method: as §1

human beings = conditions: cited from earlier work
[1] = cited from earlier work

Compound	mortality at 10 µg/mL (Tribolium castaneum)	mortality at 20 µg/mL (Tribolium castaneum)	mortality at 30 µg/mL (Tribolium castaneum)	mortality at 50 µg/mL (Tribolium castaneum)	mortality at 100 µg/mL (Tribolium castaneum)	mortality at 10 µg/mL (Rhyzopertha dominica)	mortality at 20 µg/mL (Rhyzopertha dominica)	mortality at 30 µg/mL (Rhyzopertha dominica)	mortality at 50 µg/mL (Rhyzopertha dominica)	mortality at 100 µg/mL (Rhyzopertha dominica)	mortality at 10 µg/mL (Sitophilus oryzae)	mortality at 20 µg/mL (Sitophilus oryzae)	mortality at 30 µg/mL (Sitophilus oryzae)	mortality at 50 µg/mL (Sitophilus oryzae)	mortality at 100 µg/mL (Sitophilus oryzae)	toxicity to human beings (human beings)	Solubility in water [1]	vapour pressure ([1]; at 25° C.)
CCCCOC(C)=O [Butyl acetate, butyl acetate]	2 ± 2.6%	2.1 ± 1.1%	0.6 ± 1.1%	13.9 ± 0.8%	96.2 ± 0.8%	1.6 ± 3.5%	0%	0.2 ± 0.7%	20.9 ± 26.8%	100%	8.3 ± 12.3%	1.7 ± 2.4%	3.2 ± 4.5%	67.3 ± 7.7%	100%	–	–	–
CCOC(=O)CC(C)=O [Ethyl acetoacetate, ethyl acetoacetate]	0.6 ± 2.6%	0.8 ± 1.1%	0.3 ± 1.1%	0.7 ± 0.8%	1.3 ± 0.8%	0%	0%	5.7 ± 10.4%	8.6 ± 17.1%	0.4 ± 0.9%	3.1 ± 6.9%	4.7 ± 7.1%	5.1 ± 5.7%	6.5 ± 5.5%	15.8 ± 14%	–	–	–
CC(=O)OC(C)C [Isopropyl acetate, isopropyl acetate]	0.3 ± 0.6%	1.3 ± 1.7%	32.7 ± 44.1%	66.5 ± 27.7%	100%	4.4 ± 6.9%	8.9 ± 10.7%	6.1 ± 6.7%	39.2 ± 8.2%	100%	5.5 ± 6.9%	2.3 ± 5.6%	3.7 ± 7.56%	47.1 ± 31.2%	100%	–	–	–
CCCOC(C)=O [Propyl acetate, propyl acetate]	0.9%	0.9%	12.6 ± 21.2%	83.2 ± 26.3%	100%	2 ± 4%	7.3 ± 10%	5.3 ± 10.6%	65.4 ± 40%	100%	2.4 ± 3.8%	0.5 ± 1.3%	14.2 ± 8.1%	74.3 ± 20.2%	100%	–	–	–
N#CC#N [cyanogen, reference compound]	–	–	–	–	–	–	–	–	–	–	–	–	–	–	–	highly toxic	highly water-soluble	–
O=S(=O)(F)F [sulfuryl fluoride, reference compound]	–	–	–	–	–	–	–	–	–	–	–	–	–	–	–	–	–	13,442 mm of Hg
